Measurements reported in article PMC4704022, “Insights on FXR selective modulation. Speculation on bile acid chemical space in the discovery of potent and selective agonists” (Scientific Reports, 2016).
Entries after “also recorded” stand apart in the source; their conditions may differ.

Tests used:
FXR [1] = biological target: T1, FXR (Homo sapiens, UniProt Q96RI1); assay: FXR transactivation luciferase reporter assay in transfected HepG2 cells; type: cell-based; details: for FXR transactivation activity (in words): HepG2 cells, compounds at 10 μM, CDCA 10 μM and 6-ECDCA 1 μM as positive controls; for EC50: HepG2 cells transfected with FXR, luciferase reporter, 100 nM to 10 μM
T1 construct: expressed in transfected cells; host or cells: HepG2
T1 sequence (Q96RI1 1-486): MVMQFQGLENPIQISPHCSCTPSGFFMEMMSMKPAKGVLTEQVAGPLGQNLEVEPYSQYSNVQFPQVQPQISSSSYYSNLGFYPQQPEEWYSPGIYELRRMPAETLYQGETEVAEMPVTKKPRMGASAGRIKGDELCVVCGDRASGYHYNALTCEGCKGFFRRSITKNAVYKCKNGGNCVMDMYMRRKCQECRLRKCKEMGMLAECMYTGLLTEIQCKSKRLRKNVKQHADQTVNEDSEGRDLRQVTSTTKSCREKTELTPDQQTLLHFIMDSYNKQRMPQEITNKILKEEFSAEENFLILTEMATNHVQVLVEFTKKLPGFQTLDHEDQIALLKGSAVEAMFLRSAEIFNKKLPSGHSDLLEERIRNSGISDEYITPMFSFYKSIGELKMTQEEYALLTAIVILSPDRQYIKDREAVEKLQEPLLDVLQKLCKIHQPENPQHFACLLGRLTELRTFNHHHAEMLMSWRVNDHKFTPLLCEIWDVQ
T1 sequence (P19793 1-462 partner): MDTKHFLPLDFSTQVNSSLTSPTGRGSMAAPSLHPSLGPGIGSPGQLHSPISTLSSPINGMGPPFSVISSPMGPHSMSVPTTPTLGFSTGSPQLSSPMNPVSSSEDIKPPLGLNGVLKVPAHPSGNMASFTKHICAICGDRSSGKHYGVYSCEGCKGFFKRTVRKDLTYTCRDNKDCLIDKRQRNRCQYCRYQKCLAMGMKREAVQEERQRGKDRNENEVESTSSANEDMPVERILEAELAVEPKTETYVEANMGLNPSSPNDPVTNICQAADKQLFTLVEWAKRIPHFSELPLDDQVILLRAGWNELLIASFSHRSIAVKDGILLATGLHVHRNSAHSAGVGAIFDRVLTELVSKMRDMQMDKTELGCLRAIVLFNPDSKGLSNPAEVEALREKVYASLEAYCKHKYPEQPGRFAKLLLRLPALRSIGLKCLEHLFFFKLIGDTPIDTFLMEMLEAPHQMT
Protocol: Figure 6 Transactivation assays on FXR. (A) HepG2 cells were transfected with pSG5-FXR, pSG5-RXR, pCMV-βgal, and p(hsp27)TKLUC vectors. […] Twenty-four hour post transfection cells were stimulated with increasing concentrations of each agent: range from 100 nM to 10 μM.
To evaluate the transcriptional activity of FXR, HepG2 cells were transiently transfected with Fugene HD reagent (Promega) using the followings plasmids: pCMVSPORT-humanFXR, pSG5RXR, p(hsp27)TKLUC and pGL4.70, a plasmid containing the Renilla gene used for luciferase normalization.

FXR-LBD = biological target: T2, FXR-LBD (Homo sapiens, UniProt Q96RI1); assay: Alphascreen coactivator recruitment assay, FXR-LBD with SRC-1 peptide; type: biochemical; details: ligand at 2 μM, effect of 6 set as 100%
T2 construct: 10 nM of purified GST-tagged FXR-LBD protein
T2 sequence (Q96RI1 262-486 limits assumed): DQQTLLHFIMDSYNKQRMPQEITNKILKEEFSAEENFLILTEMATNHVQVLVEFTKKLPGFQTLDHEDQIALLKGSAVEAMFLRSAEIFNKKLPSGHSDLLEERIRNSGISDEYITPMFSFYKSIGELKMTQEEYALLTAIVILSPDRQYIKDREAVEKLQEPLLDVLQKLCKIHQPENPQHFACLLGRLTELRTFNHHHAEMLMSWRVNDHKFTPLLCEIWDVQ
Protocol: Figure 7 Coactivator recruitment assay measuring a direct interaction of FXR with SRC-1. Anti-GST-coated acceptor beads captured GST-fusion FXR-LBD and the biotinylated-SRC-1 peptide was captured by the streptavidin donor beads. FXR-LBD recruited SRC-1 in the presence of ligand at 2 μM and, upon illumination at 680 nm, chemical energy is transferred from donor to acceptor beads across the complex streptavidin-donor/Src-1-biotin/ligand/GSTFXR-LBD/anti-GST-acceptor and a signal is produced. Results are expressed as percentage of the effect of 6 arbitrarily settled as 100%. NT is referred to the experiment carried out in absence of ligand. Results are expressed as mean ± standard error.
The relative potency of selected members of this novel family was then investigated by a detailed measurement of concentration-response curve of the 3-deoxy sulfate derivative 9, the corresponding carboxylic acid 10, and the 3β-hydroxyl alcohol 15 and carboxylic acid derivative 17, all sharing the 6α/7α configuration, on FXR transactivation. […] In this assay, the ligand induces the recruitment of the coactivator to the LBD of hFXR.
Anti-GST-coated acceptor beads were used to capture the GST-fusion FXR-LBD, whereas the biotinylated-SRC-1 peptide was captured by the streptavidin donor beads. Upon illumination at 680 nm, chemical energy is transferred from donor to acceptor beads across the complex streptavidin-donor/Src-1-biotin/GSTFXR-LBD/anti-GST-acceptor and a signal is produced. The assay was performed in white, low-volume, 384-well Optiplates (PerkinElmer) using a final volume of 25 μL containing final concentrations of 10 nM of purified GST-tagged FXR-LBD protein, 30 nM biotinylated Src-1 peptide, 20 μg/mL anti-GST acceptor beads acceptor beads, and 10 μg/mL of streptavidin donor bead (PerkinElmer). The assay buffer contained 50 mM Tris (pH 7.4), 50 mM KCl, 0.1% BSA, and 1 mM DTT. […] After the addition of the detection mix (acceptor and donor beads), the plates were incubated in the dark for 4 h at room temperature and then were read in an Envision microplate analyzer (PerkinElmer).

FXR [2] = tested on: FXR; set-up: method as in PMID 10360171; details: cited from earlier work
GPBAR1 [3] = biological target: T3, GPBAR1 (Homo sapiens, UniProt Q8TDU6); assay: GPBAR1 agonism, CRE-luciferase transactivation assay in transfected HEK-293T cells; type: cell-based; details: from FXR and GPBAR1 transactivation results
T3 construct: expressed in transfected cells; host or cells: HEK-293T
T3 sequence (Q8TDU6 1-330): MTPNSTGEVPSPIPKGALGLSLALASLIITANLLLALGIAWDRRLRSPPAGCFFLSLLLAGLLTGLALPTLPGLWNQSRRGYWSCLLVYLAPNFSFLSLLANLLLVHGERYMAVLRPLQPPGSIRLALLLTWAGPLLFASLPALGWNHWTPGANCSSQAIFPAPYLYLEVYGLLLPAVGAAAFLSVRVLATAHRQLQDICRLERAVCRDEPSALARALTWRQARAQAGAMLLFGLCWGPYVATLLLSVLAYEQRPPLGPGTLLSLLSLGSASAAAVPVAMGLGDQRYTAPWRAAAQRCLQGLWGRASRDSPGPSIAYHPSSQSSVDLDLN
Protocol: (A) HEK-293T cells were co-transfected with GPBAR1 and a reporter gene containing a cAMP responsive element in front of the luciferase gene. Twenty-four hour post transfection cells were stimulated with 7–21 (10 μM). Luciferase activity served as a measure of the rise in intracellular cAMP following activation of GPBAR1. […] Twenty-four hour post transfection cells were stimulated with increasing concentrations of each agent: range from 100 nM to 50 μM. Results are expressed as mean ± standard error.
To investigate GPBAR1 activation, HEK-293T cells were transiently transfected with Fugene HD reagent (Promega) using the following vectors: pCMVSPORT6-human GPBAR1, pGL4.29 (Promega), a reporter vector containing a cAMP response element (CRE) cloned upstream to the luciferase reporter gene luc2P and pGL4.70. […] Dose-response curves were performed in HEK-293T cells transfected as described above and treated with increasing concentrations of 9 and 21 (from 100 nM to 50 μM). […] At 18 h post stimulations, cellular lysate was assayed for luciferase and renilla activities using the Dual-Luciferase Reporter assay system (E1980, Promega). Luminescence was measured using Glomax 20/20 luminometer (Promega). Luciferase activities were normalized with Renilla activities.

GPBAR1 [4] = tested on: GPBAR1; set-up: method as in PMID 25247751; details: cited from earlier work
NASH patients = tested on: NASH patients; set-up: method as in PMID 25468160; details: cited from earlier work
PBC patients = details: cited from earlier work

SMILES: CC[C@H]1[C@@H](O)[C@@H]2[C@H](CC[C@]3(C)[C@@H]([C@H](C)CCC(=O)O)CC[C@@H]23)[C@@]2(C)CC[C@H](O)C[C@@H]12 [compound 17, 6α-ethyl-3β,7α-dihydroxy-5β-cholan-24-oic acid]
- FXR transactivation activity (in words) (FXR [1]): potent agonists of FXR
- Recruitment of SRC-1 coactivator to FXR-LBD (in words) (FXR-LBD): very potent activity in the recruitment of SRC-1 co-activator

SMILES: CC[C@@H]1[C@H](O)C2C3CC[C@H]([C@H](C)CCCO)[C@@]3(C)CCC2[C@@]2(C)CCCC[C@@H]12 (stereo partly drawn) [compound 13]
- FXR transactivation activity (in words) (FXR [1]): complete loss of activity

SMILES: C[C@H](CCC(=O)O)[C@H]1CC[C@H]2[C@@H]3CC[C@@H]4C[C@H](O)CC[C@]4(C)[C@H]3C[C@H](O)[C@]12C [deoxycholic acid]
- FXR ligand strength relative to CDCA (in words) (FXR [2]): weaker natural ligands

SMILES: CC[C@H]1[C@H](O)[C@@H]2[C@H](CC[C@]3(C)[C@@H]([C@H](C)CCC(=O)O)CC[C@@H]23)[C@@]2(C)CCCC[C@@H]12 [compound 11, 6α-ethyl-7β-hydroxy-5β-cholan-24-oic acid]
- FXR transactivation activity (in words) (FXR [1]): retains a certain activity

SMILES: CC[C@H]1[C@@H](O)C2C3CC[C@H]([C@H](C)CCCO)[C@@]3(C)CCC2[C@@]2(C)CCCC[C@@H]12 (stereo partly drawn) [compound 7]
- FXR transactivation activity (in words) (FXR [1]): potent agonists of FXR

SMILES: CC[C@H]1[C@@H](O)[C@@H]2[C@H](CC[C@]3(C)[C@@H]([C@H](C)CCCO)CC[C@@H]23)[C@@]2(C)CC[C@H](O)C[C@@H]12 [compound 15, 6α-ethyl-3β,7α-dihydroxy-5β-cholan-24-ol]
- EC50 (FXR [1]): 2200 nM
- FXR transactivation activity (in words) (FXR [1]): potent agonists of FXR
- Recruitment of SRC-1 coactivator to FXR-LBD (in words) (FXR-LBD): very potent activity in the recruitment of SRC-1 co-activator

SMILES: CC[C@@H]1[C@H](O)C2C3CC[C@H]([C@H](C)CCCO)[C@@]3(C)CCC2[C@@]2(C)CC[C@H](O)C[C@@H]12 (stereo partly drawn) [compound 20]
- FXR transactivation activity (in words) (FXR [1]): complete loss of activity

SMILES: CC[C@H]1[C@@H](O)C2C3CC[C@H]([C@H](C)CCCOS(=O)(=O)O)[C@@]3(C)CCC2[C@@]2(C)CCCC[C@@H]12 (stereo partly drawn) [compound 9]
- EC50 (FXR [1]): 1100 nM
- FXR transactivation activity (in words) (FXR [1]): potent agonists of FXR
- Receptor preference FXR versus GPBAR1 (in words) (GPBAR1 [3]): preferential FXR modulator with a residual activity on GPBAR1

SMILES: C[C@H](CCC(=O)O)[C@H]1CC[C@H]2[C@@H]3CC[C@@H]4C[C@@H](O)CC[C@]4(C)[C@H]3CC[C@]12C [iso-LCA]
- GPBAR1 activity (in words) (GPBAR1 [4]): less potent respect to the cognate LCA

SMILES: CC[C@@H]1[C@@H](O)C2C3CC[C@H]([C@H](C)CCCO)[C@@]3(C)CCC2[C@@]2(C)CC[C@H](O)C[C@@H]12 (stereo partly drawn) [compound 21]
- FXR transactivation activity (in words) (FXR [1]): less potent then CDCA in transactivating FXR
- Receptor preference FXR versus GPBAR1 (in words) (GPBAR1 [3]): weak but preferential GPBAR1 activator

SMILES: CC[C@H]1[C@@H](O)C2C3CC[C@H]([C@H](C)CCC(=O)NCCS(=O)(=O)O)[C@@]3(C)CCC2[C@@]2(C)CCCC[C@@H]12 (stereo partly drawn) [compound 12]
- FXR transactivation activity (in words) (FXR [1]): ability in transactivating FXR is also maintained; also recorded: still a potent FXR agonist

SMILES: CC[C@H]1[C@@H](O)C2C3CC[C@H]([C@H](C)CCC(=O)NCCS(=O)(=O)O)[C@@]3(C)CCC2[C@@]2(C)CC[C@H](O)C[C@@H]12 (stereo partly drawn) [compound 19]
- FXR transactivation activity (in words) (FXR [1]): considerable decrease in FXR transactivation activity; also recorded: detrimental in term of FXR activation

SMILES: CC[C@H]1[C@H](O)C2C3CC[C@H]([C@H](C)CCCO)[C@@]3(C)CCC2[C@@]2(C)CCCC[C@@H]12 (stereo partly drawn) [compound 8]
- FXR transactivation activity (in words) (FXR [1]): completely inactive towards FXR

SMILES: C[C@H](CCC(=O)O)[C@H]1CC[C@H]2[C@@H]3[C@H](O)C[C@@H]4C[C@@H](O)CC[C@]4(C)[C@H]3CC[C@]12C [iso-CDCA, isochenodeoxycholic acid]
- GPBAR1 activity (in words) (GPBAR1 [4]): very weak activity towards GPBAR1

SMILES: CC[C@H]1[C@@H](O)[C@@H]2[C@H](CC[C@]3(C)[C@@H]([C@H](C)CCC(=O)O)CC[C@@H]23)[C@@]2(C)CC[C@@H](O)C[C@@H]12 [6-ECDCA, 6-ethylchenodeoxycholic acid]
- NASH resolution, patients (NASH patients; after 72 weeks, p = 0.08 vs. placebo): 22%
- Decrease in HDL-C levels (NASH patients; as compared to placebo): 5%
- Increase in LDL-C (NASH patients; as compared to placebo): 16%
- Primary histological outcome (NAFLD activity score) and fibrosis score (NASH patients; compared with placebo): significantly improved
- Drug discontinuation due to exacerbation of itching, patients (PBC patients; PBC patients): 40%
- Drug discontinuation, patients (PBC patients; due to pruritus): 40%
- Incidence of pruritus, patients (PBC patients; patients with primary biliary cirrhosis): up to 80%
